Laboratory results: patent US10323026B2, “Heterocyclic compound” (Takeda Pharmaceutical Company Limited, priority 2016, dated 2019)

Target: T1, His-hMAGL (recombinant polyhistidine tagged human MAGL protein) (Homo sapiens, UniProt Q99685)
T1 construct: polyhistidine (His) (N); made in house; host or cells: E. coli BL21(DE3)
T1 sequence (Q99685 1-303): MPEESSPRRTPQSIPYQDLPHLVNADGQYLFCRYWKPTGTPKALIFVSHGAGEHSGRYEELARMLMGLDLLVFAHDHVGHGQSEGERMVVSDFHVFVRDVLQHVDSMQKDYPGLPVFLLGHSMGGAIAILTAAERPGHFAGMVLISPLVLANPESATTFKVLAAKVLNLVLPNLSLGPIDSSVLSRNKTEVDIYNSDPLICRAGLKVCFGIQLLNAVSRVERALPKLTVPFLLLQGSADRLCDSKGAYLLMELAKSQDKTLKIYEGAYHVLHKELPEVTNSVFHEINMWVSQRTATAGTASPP
Test: Measurement of MAGL inhibitory activity (RapidFire-mass spectrometry of arachidonic acid produced from 2-arachidonylglycerol)
Type: biochemical
Conditions: test compound 10 μM; His-hMAGL; substrate 2-arachidonylglycerol; 60 min preincubation; 10 µM
Description: Furthermore, acetonitrile (50 μL) containing 3 μM arachidonic acid-d8 (Cayman Chemical Company) was added and the mixture was stirred.
The amount of arachidonic acid in the obtained enzyme reaction mixture was calculated by measuring by RapidFire-mass spectrometry and correcting by the amount of arachidonic acid-d8. High Throughput online solid phase extraction was performed using RapidFire 300™ system (Agilent Technologies, Inc.). Samples were loaded on SPE C4 cartridge (Agilent Technologies, Inc.) and desalted with 0.2 (v/v) % acetic acid (Wako Pure Chemical Industries, Ltd.) in ultrapure water/acetonitrile (70/30, v/v) at a flow rate of 1.5 mL/min, eluted at a flow rate of 0.5 mL/min with 0.2(v/v) % acetic acid dissolved in acetonitrile/ultrapure water (90/10, v/v), and injected into the mass spectrometry part. The injection needle was washed with ultrapure water (500 millisecond) and acetonitrile (500 millisecond) to minimize carry-over. […] The RapidFire300 system was controlled by RapidFire UI software version 3.6 (Agilent Technologies, Inc.).
The mass spectrometry of the resultant product was performed using API4000™ triple quadrupole mass spectrometer (AB SCIEX) equipped with an electrospray ion source (TurboIon Spray™) in a negative selected reaction monitoring (SRM) mode. The conditions of SRM are shown below. The parameters of the instrument were optimized as follows: capillary temperature 600° C., ion spray voltage −4.5 kV, collision gas 8, curtain gas 15 psi, ion source gas 1 60 psi, ion source gas 2 60 psi. The mass spectrometer was controlled by Analyst™ software version 1.5.1 (AB SCIEX). The peak area integration was analyzed using RapidFire integrator software version 3.6 (Agilent Technologies, Inc.).
MAGL inhibitory rate (%) was calculated according to the following calculation formula. (1-(arachidonic acid production amount of test compound addition group−arachidonic acid production amount of enzyme-free group)÷(arachidonic acid production amount of test compound-free group−arachidonic acid production amount of enzyme-free group))×100

Question: Cc1cc(F)ccc1OC(C)C1CCN(C(=O)[C@H]2C[C@]3(COC(=O)N3)C2)CC1 (some centres unmarked) [Example 34, (2s,4s)-2-((4-(1-(4-fluoro-2-methylphenoxy)ethyl)piperidin-1-yl)carbonyl)-7-oxa-5-azaspiro[3.4]octan-6-one] was tested. Which “% inhibition (10 μM)” value did it give?
Answer: The value was 101%.

Question: Which “% inhibition (10 μM)” value does the source give for CC1(C2CCN(C(=O)[C@H]3C[C@]4(COC(=O)N4)C3)CC2)Cc2cc(C(F)(F)F)ccc2O1 (some centres unmarked) [Example 68, (2s,4s)-2-((4-(2-methyl-5-(trifluoromethyl)-2,3-dihydro-1-benzofuran-2-yl)piperidin-1-yl)carbonyl)-7-oxa-5-azaspiro[3.4]octan-6-one] here?
Answer: The value was 100%.

Question: CC(Oc1ccc(F)cc1F)C1CCN(C(=O)[C@H]2C[C@]3(COC(=O)N3)C2)CC1 (some centres unmarked) [Example 21, (2s,4s)-2-((4-(1-(2,4-difluorophenoxy)ethyl)piperidin-1-yl)carbonyl)-7-oxa-5-azaspiro[3.4]octan-6-one] was tested. Which “% inhibition (10 μM)” value did it give?
Answer: The value was 100%.

Question: How did the “% inhibition (10 μM)” value turn out when CC(Oc1cc(F)c(F)cc1F)C1CCN(C(=O)[C@H]2C[C@]3(COC(=O)N3)C2)CC1 (some centres unmarked) [Example 55, (2s,4s)-2-((4-(1-(2,4,5-trifluorophenoxy)ethyl)piperidin-1-yl)carbonyl)-7-oxa-5-azaspiro[3.4]octan-6-one] was run?
Answer: Its value is 100%.

Question: Which “% inhibition (10 μM)” value does the source give for CC1(C2CCN(C(=O)[C@H]3C[C@]4(COC(=O)N4)C3)CC2)Cc2ccc(C(F)(F)F)cc2O1 (some centres unmarked) [Example 71, (2s,4s)-2-((4-(2-methyl-6-(trifluoromethyl)-2,3-dihydro-1-benzofuran-2-yl)piperidin-1-yl)carbonyl)-7-oxa-5-azaspiro[3.4]octan-6-one] here?
Answer: Its value is 101%.

Question: With CC(Oc1ccc(F)cc1F)C1CCN(C(=O)[C@H]2C[C@]3(COC(=O)N3)C2)CC1 (some centres unmarked) [Example 22, (2s,4s)-2-((4-(1-(2,4-difluorophenoxy)ethyl)piperidin-1-yl)carbonyl)-7-oxa-5-azaspiro[3.4]octan-6-one] as the compound, how does the “% inhibition (10 μM)” value read?
Answer: Its value is 101%.

Question: With CC1(C2CCN(C(=O)[C@H]3C[C@]4(COC(=O)N4)C3)CC2)Cc2cc(C(F)(F)F)ccc2O1 (some centres unmarked) [Example 69, (2s,4s)-2-((4-(2-methyl-5-(trifluoromethyl)-2,3-dihydro-1-benzofuran-2-yl)piperidin-1-yl)carbonyl)-7-oxa-5-azaspiro[3.4]octan-6-one] as the compound, how does the “% inhibition (10 μM)” value read?
Answer: The value was 101%.

Same assay, conditions: test compound 10 μM; His-hMAGL; substrate 2-arachidonylglycerol; 60 min preincubation; read-out: % inhibition (10 μM)

Question: How did the inhibition at 10 µM turn out when CC(Oc1cc(F)c(F)cc1F)C1CCN(C(=O)[C@H]2C[C@]3(COC(=O)N3)C2)CC1 (some centres unmarked) [Example 40, (2s,4s)-2-((4-(1-(2,4,5-trifluorophenoxy)ethyl)piperidin-1-yl)carbonyl)-7-oxa-5-azaspiro[3.4]octan-6-one] was run?
Answer: Its inhibition at 10 µM is 101%.

Question: O=C1N[C@]2(CO1)C[C@H](C(=O)N1CC(/C=C(\F)c3ccc(C(F)(F)F)c(Cl)c3)C1)C2 [Example 111, (2s,4s)-2-((3-((Z)-2-(3-chloro-4-(trifluoromethyl)phenyl)-2-fluorovinyl)azetidin-1-yl)carbonyl)-7-oxa-5-azaspiro[3.4]octan-6-one] was tested. Which inhibition at 10 µM did it give?
Answer: The inhibition at 10 µM was 100%.

Question: For Cc1cc(COCC2CN(C(=O)[C@H]3C[C@]4(COC(=O)N4)C3)C2)ccc1Cl [Example 121, (2s,4s)-2-((3-(((4-chloro-3-methylbenzyl)oxy)methyl)azetidin-1-yl)carbonyl)-7-oxa-5-azaspiro[3.4]octan-6-one], which inhibition at 10 µM is on record?
Answer: The inhibition at 10 µM was 101%.

Question: With O=C1N[C@]2(CO1)C[C@H](C(=O)N1CC(COc3ccc(Cl)cc3Cl)C1)C2 [Example 79, (2s,4s)-2-((3-((2,4-dichlorophenoxy)methyl)azetidin-1-yl)carbonyl)-7-oxa-5-azaspiro[3.4]octan-6-one] as the compound, how does the inhibition at 10 µM read?
Answer: Its inhibition at 10 µM is 100%.

Question: For Cc1ccc(OCC2CCN(C(=O)[C@H]3C[C@]4(COC(=O)N4)C3)CC2)c(F)c1 [Example 23, (2s,4s)-2-((4-((2-fluoro-4-methylphenoxy)methyl)piperidin-1-yl)carbonyl)-7-oxa-5-azaspiro[3.4]octan-6-one], which inhibition at 10 µM is on record?
Answer: Its inhibition at 10 µM is 100%.

Question: Which inhibition at 10 µM does the source give for CCc1cc(OCC2CN(C(=O)[C@H]3C[C@]4(COC(=O)N4)C3)C2)c(F)cc1C(F)(F)F [Example 86, (2s,4s)-2-((3-((5-ethyl-2-fluoro-4-(trifluoromethyl)phenoxy)methyl)azetidin-1-yl)carbonyl)-7-oxa-5-azaspiro[3.4]octan-6-one] here?
Answer: The inhibition at 10 µM was 100%.

Question: Which inhibition at 10 µM does the source give for CC(Oc1ccc(C2CC2)cc1F)C1CCN(C(=O)[C@H]2C[C@]3(COC(=O)N3)C2)CC1 (some centres unmarked) [Example 47, (2s,4s)-2-((4-(1-(4-cychopropyl-2-fluorophenoxy)ethyl)piperidin-1-yl)carbonyl)-7-oxa-5-azaspiro[3.4]octan-6-one] here?
Answer: Its inhibition at 10 µM is 100%.

Question: With CC1(C2CCN(C(=O)[C@H]3C[C@]4(COC(=O)N4)C3)CC2)Cc2cc(C(F)(F)F)ccc2O1 (some centres unmarked) [Example 53, (2s,4s)-2-((4-(2-methyl-5-(trifluoromethyl)-2,3-dihydro-1-benzofuran-2-yl)piperidin-1-yl)carbonyl)-7-oxa-5-azaspiro[3.4]octan-6-one] as the compound, how does the inhibition at 10 µM read?
Answer: The inhibition at 10 µM was 101%.

Question: For CC(Oc1ccc(Cl)cc1F)C1CCN(C(=O)[C@H]2C[C@]3(CCC(=O)N3)C2)CC1 (some centres unmarked) [Example 17, (2r,4s)-2-((4-(1-(4-chloro-2-fluorophenoxy)ethyl)piperidin-1-yl)carbonyl)-5-azaspiro[3.4]octan-6-one], which inhibition at 10 µM is on record?
Answer: The inhibition at 10 µM was 100%.

Question: O=C1N[C@]2(CO1)C[C@H](C(=O)N1CC(COc3cc(C4CC4)c(C(F)(F)F)cc3F)C1)C2 [Example 65, (2s,4s)-2-((3-((5-cyclopropyl-2-fluoro-4-(trifluoromethyl)phenoxy)methyl)azetidin-1-yl)carbonyl)-7-oxa-5-azaspiro[3.4]octan-6-one] was tested. Which inhibition at 10 µM did it give?
Answer: The inhibition at 10 µM was 101%.

Question: Which inhibition at 10 µM does the source give for CC(Oc1ccc(F)cc1C(F)(F)F)C1CCN(C(=O)[C@H]2C[C@]3(COC(=O)N3)C2)CC1 (some centres unmarked) [Example 59, (2s,4s)-2-((4-(1-(4-fluoro-2-(trifluoromethyl)phenoxy)ethyl)piperidin-1-yl)carbonyl)-7-oxa-5-azaspiro[3.4]octan-6-one] here?
Answer: The inhibition at 10 µM was 100%.

Question: Cc1cc(COC2CN(C(=O)[C@H]3C[C@]4(COC(=O)N4)C3)C2)c(F)cc1C(F)(F)F [Example 115, (2s,4s)-2-((3-((2-fluoro-5-methyl-4-(trifluoromethyl)benzyl)oxy)azetidin-1-yl)carbonyl)-7-oxa-5-azaspiro[3.4]octan-6-one] was tested. Which inhibition at 10 µM did it give?
Answer: The inhibition at 10 µM was 100%.

Question: For O=C1N[C@]2(CO1)C[C@H](C(=O)N1CC(CC(F)(F)c3ccc(F)c(C(F)(F)F)c3)C1)C2 [Example 100, (2s,4s)-2-((3-(2,2-difluoro-2-(4-fluoro-3-(trifluoromethyl)phenyl)ethyl)azetidin-1-yl)carbonyl)-7-oxa-5-azaspiro[3.4]octan-6-one], which inhibition at 10 µM is on record?
Answer: Its inhibition at 10 µM is 100%.

Question: CCC1(COc2ccc(F)cc2Cl)CCN(C(=O)[C@H]2C[C@]3(COC(=O)N3)C2)CC1 [Example 44, (2s,4s)-2-((4-((2-chloro-4-fluorophenoxy)methyl)-4-ethylpiperidin-1-yl)carbonyl)-7-oxa-5-azaspiro[3.4]octan-6-one] was tested. Which inhibition at 10 µM did it give?
Answer: The inhibition at 10 µM was 101%.

Question: O=C1N[C@]2(CO1)C[C@H](C(=O)N1CCC(COc3ccc(C(F)(F)F)cc3Cl)CC1)C2 [Example 19, (2s,4s)-2-((4-((2-chloro-4-(trifluoromethyl)phenoxy)methyl)piperidin-1-yl)carbonyl)-7-oxa-5-azaspiro[3.4]octan-6-one] was tested. Which inhibition at 10 µM did it give?
Answer: The inhibition at 10 µM was 101%.

Question: Which inhibition at 10 µM does the source give for Cc1ccc(OC(C)C2CCN(C(=O)[C@H]3C[C@]4(COC(=O)N4)C3)CC2)c(F)c1 (some centres unmarked) [Example 28, (2s,4s)-2-((4-(1-(2-fluoro-4-methylphenoxy)ethyl)piperidin-1-yl)carbonyl)-7-oxa-5-azaspiro[3.4]octan-6-one] here?
Answer: The inhibition at 10 µM was 100%.

Question: Which inhibition at 10 µM does the source give for O=C1N[C@]2(CO1)C[C@H](C(=O)N1CCC(C(F)(F)c3ccc(Cl)cc3Cl)CC1)C2 [Example 8, (2s,4s)-2-((4-((2,4-dichlorophenyl)(difluoro)methyl)piperidin-1-yl)carbonyl)-7-oxa-5-azaspiro[3.4]octan-6-one] here?
Answer: Its inhibition at 10 µM is 100%.

Question: With CC(Oc1ccc(F)c(F)c1F)C1CCN(C(=O)[C@H]2C[C@]3(COC(=O)N3)C2)CC1 (some centres unmarked) [Example 80, (2s,4s)-2-((4-(1-(2,3,4-trifluorophenoxy)ethyl)piperidin-1-yl)carbonyl)-7-oxa-5-azaspiro[3.4]octan-6-one] as the compound, how does the inhibition at 10 µM read?
Answer: The inhibition at 10 µM was 101%.

Question: O=C1N[C@]2(CO1)C[C@H](C(=O)N1CCC(C(c3ccccc3)c3ccccc3)CC1)C2 [Example 50, (2s,4s)-2-((4-(diphenylmethyl)piperidin-1-yl)carbonyl)-7-oxa-5-azaspiro[3.4]octan-6-one] was tested. Which inhibition at 10 µM did it give?
Answer: The inhibition at 10 µM was 101%.
